Consider 3 molecules from patent publication US10632127B2, “Targeted notch pathway inhibitors” (Hoffmann-La Roche Inc., priority 2015, dated 2020).

Where a name gives a salt, the structure may show the parent alone. Read-outs that look alike come from different tables or passages of the source.

The nature of data set [1]: Pharmacokinetic assessment in male Wistar rats (i.v.). The class given is in vivo, rat. Conditions: for concentration at 0.25 h / concentration at 0.5 h: rat, intravenous. The procedure: (§1) For PK evaluation, the compounds were administered i.p to male C57BL/6 mice in suspension (gelatine/saline 7.5%/0.62% in water) using an administration volume of 4 mL/kg. Blood samples were collected in tubes containing EDTA, plasma was separated by centrifugation and stored at −80° C. Liver and kidney samples (˜100 mg aliquots) were homogenized in three volumes of water using Precellys tissue homogenization tubes (precellys.com). 25 μL of each tissue homogenate was further diluted with 25 μL blank plasma to produce the final tissue homogenate for extraction. All samples were analyzed using protein precipitation followed by LC-MS/MS analysis. Briefly, 50 μL plasma or final tissue homogenate were mixed with 50 μL 0.5M HClO4/acetonitrile 9/1 (containing 200 ng/mL internal standard bosentan). Samples were stirred and 300 μL water was added followed by centrifugation at 5600 rpm (4° C., 10 min). 10 μL supernatant was analyzed by LC/MS analysis. Calibration standards in plasma were prepared the same way. The LC column and conditions used were: Phenomenex, Polar RP, 4 μm, 50×2.1 mm at 0.4 mL/min flow rate with a 3 min gradient from 95% solvent A to 95% solvent B (Solvent A: Water/ACN/HCOOH, 90:10:0.1+10 mM NH4 formate; Solvent B: Water/ACN/HCOOH, 10:90:0.1+10 mM NH4 formate). Mass spectrometric conditions were: Thermo TSQ Vantage with positive heated electrospray ionization in MS/MS mode. Compounds mass transitions monitored were m/z 320.7 to 119.9. PK parameters for all studies were calculated using Phoenix WinNonlin Software.
We next determined the stability, tissue distribution and cleavage rate in plasma, liver and kidney of the designed prodrugs in male Wistar rats. In the in vivo screen, the kinetics and distribution of the prodrugs Ac-γ-Glu-SecrI (13a) and Ac-γ-Glu-O-SecrI (13c) were compared with the active γ-secretase inhibitor SecrI (8). After i.v. administration in male Wistar rats, the disappearance of the prodrugs and the formation of the active amine-SecrI (11a), amine-O-SecrI (11b) and SecrI (8) were compared in plasma, liver and kidney (Table 7A-C). First, we determined the pharmacokinetics (PK) behavior of SecrI (8) following i.v. administration (Table 7A). […] Liver and kidney exposure were much higher, with same exposure in liver and kidney. […] The selectivity towards kidney stayed constant over time. The carbonate analogue Ac-γ-Glu-O-SecrI (13c) prodrug was converted to a lower extent than the Ac-γ-Glu-SecrI (13a) to amine-O-SecrI (11b) but more to the linker free γ-secretase inhibitor 8 (Table 7C).
Plasma and tissue concentrations of administered compound (A-C) and formed amine-SecrI (11a), amine-O-SecrI (11b) or SecrI (8) (B-C) were determined following i.v. administration in rats (no standard deviation given due to sparse sampling; n≤3 rats per time point). Numbers in parentheses represent relative amounts with the exposure of kidney arbitrarily set at each time point to 100%. […] BQL=below quantifiable limit.

The target of data set [2] is Notch signal transduction pathway. Kind of data set: In vitro Notch signal transduction pathway activity assay (DR215/F2 luciferase reporter). The note with it: for IC50 for blockade of the Notch pathway, range in words: DR215/F2 cell reporter assay; for IC50: Homo sapiens, 215/F2 reporter cell line, 19 h, mean of at least 3 experiments. The class given is cell-based, human. As for the experimental part:
The compounds were dissolved in dimethyl sulfoxide (DMSO) at 10 mM stock solution, aliquoted and stored at −4° C. until use, then diluted in PBS or cell culture medium. In the experimental settings, controls containing increasing concentrations of DMSO, corresponding to the amount of DMSO of the diluted compounds were always included. For in vivo experiments, the compounds were dissolved in 0.9% NaCl, incubated 30 min at 40° C. and sonicated for 5 min.
The requirement of proteolytic activation of the prodrugs to inhibit Notch cleavage by the γ-secretase, was investigated using a reporter assay (Table 3). The DR215/F2 cell line expresses a reporter construct designed to monitor the activity of the Notch signal transduction pathway. The DR215/F2 cell line 39 carries two transgenes: the firefly luciferase reporter gene expressed under the control of the Gal4 promoter and the human Notch1 activator gene fused with the yeast Gal4 transcription factor. This assay confirmed that the prodrugs were able to inhibit γ-secretase and the activation of the Notch pathway. The DR215/F2 cell reporter assay was also used to determine the IC50 for blockade of the Notch pathway by all the compounds designed and prepared.
The values were determined using the 215/F2 reporter cell line for Notch activation by the γ-secretase. All values are the mean of at least 3 experiments.
The preparation and characterization of rat brain-derived EC219 endothelial cells have been described in Juillerat-Jeanneret, L. et al. In Vitro Cell. Dev. Biol. 1992, 28A, 537-543. These cells express high levels of APA and γ-GT activities and can be used for determining kinetics in living cells, and were chosen as APA- and γ-GT-positive representative cell models. EC219 cells were grown in DMEM medium containing 1 g/l glucose, 10% heat-inactivated fetal calf serum (FCS, EuroClone, UK) supplemented with 100 U/mL penicillin and 100 μg/mL streptomycin (P/S) on uncoated cell culture plastic ware. The HEK293 and HK2 human kidney cells are available from the ATCC (American Tissue Culture Collection, Manassas, Va., USA). HEK293 cells were grown on uncoated cell culture plastic ware in Iscove modified Dulbecco medium (IMDM, Life Technologies) containing 10% FCS and P/S. HK2 cells were grown on uncoated cell culture plastic ware in DMEM/F-12 GlutaMAX medium (Gibco) containing 5% FCS, P/S, 1% ITS (1.0 mg/ml bovine insulin, 0.55 mg/ml human transferrin and 0.5 μg/ml sodium selenite, Sigma-Aldrich) and 5 ng/ml hydrocortisone. The human HEK293-derived DR215/F2 embryonic kidney cell line, stably transfected with pFR Luc and APP-Notch Gal (plasmid DR215) as described in WO 2006/061136 A2 and Brockhaus, M. Neuroreport 1998 9, 1481-1486, were maintained using IMDM with 10% FCS supplemented with P/S and kept under double-selection with 150 μg/ml G-418 and 50 μg/ml hygromycin B on coated (1:100 Poly-L-lysine) cell culture plastic ware. In this assay, the Notch-Gal4 protein is bound to the cell membrane via its trans-membrane domain. The Notch intracellular domain is released by proteolytic cleavage mediated by the γ-secretase and moves to the cell nucleus where it activates the reporter luciferase gene transcript. Inhibition of γ-secretase thus decreases luciferase activity. Briefly, cultures were grown in 96-well microplates to 80% confluence; the cells were then washed in PBS and exposed to decreasing concentrations of the γ-secretase-inhibitor analogues in complete IMDM culture medium without red phenol at 37° C. for 19 h. Then 75 μl of supernatant from each well was removed and the luciferase activity was determined by adding 25 μl of Steady-Glo luciferase assay reagent (Promega).
(In general: A reporter such as luciferase makes a cellular process visible.)

The nature of data set [3]: Pharmacokinetic assessment in C57BL/6 healthy wild-type mice (i.p.). It is filed as in vivo, mouse. The note with it: C57BL/6 mice, 10 mg/kg i.p. As for the experimental part: as §1
We next determined the stability, tissue distribution and cleavage rate in plasma, liver and kidney of the designed prodrugs in non-diseased mice. In the in vivo screen, the kinetics and distribution of γ-secretase inhibitor prodrugs Ac-γ-Glu-SecrI (13a), Ac-α-Glu-SecrI (15a) and H-α-Glu-SecrI (15b) were compared with the active γ-secretase inhibitor amine-SecrI (11a). After i.p administration (10 mg/kg) in C57BL/6 mice, the disappearance of the prodrugs and the formation of the active amine-SecrI (11a) were compared in plasma, liver and kidney (Table 5). First, we determined the pharmacokinetics (PK) behavior of amine-SecrI (11a) following i.p. administration (Table 5A). […] Liver and kidney exposure were much higher, with approximately 4.5-fold higher exposure in liver compared to kidney. […] The selectivity towards kidney appeared to decrease over time, probably due to fast clearance and re-equilibration of the amine-SecrI (11a). However, the high selectivity at earlier time-points assured that the total exposure over time was much higher in the kidney compared to the liver.

Take `C[C@H]1Oc2ccc(F)cc2N(CCOC(=O)OCCN)C(=O)[C@H]1NC(=O)[C@@](C)(O)C(=O)NCC(F)(F)C(F)(F)F` [Compound 11b, 2-Aminoethyl 2-((2R,3S)-7-fluoro-3-((S)-2-hydroxy-2-methyl-3-oxo-3-(2,2,3,3,3-pentafluoropropylamino)propanamido)-2-methyl-4-oxo-3,4-dihydrobenzo[b][1,4]oxazepin-5(2H)-yl)ethyl carbonate hydrochloride]: the “Plasma concentration of formed 11b” value in data set [1] (13c 1.5 mg/kg i.v., 0.25 h) was “BQL”; in data set [1] (13c 1.5 mg/kg i.v., 0.5 h), “BQL”; in data set [1] (13c 1.5 mg/kg i.v., 4 h), “BQL”; in data set [1] (13c 1.5 mg/kg i.v., 7 h) it was “BQL”. Moreover, the “Formed 11b in kidney, relative amount (arbitrarily set to 100%)” value in data set [1] (13c 1.5 mg/kg i.v., 7 h) was “(100) %”. Further, the “kidney selectivity, in words” value in data set [1] (formed after 13c i.v.) was “very good kidney selectivity”. Moreover, the “IC50 for blockade of the Notch pathway, range in words” value in data set [2] was “low nanomolar range”. Further, the IC50 (usually the concentration needed to halve the response being measured) in data set [2] was 0.5 nM.

For `CC(=O)N[C@@H](CCC(=O)NCCOC(=O)OCCN1C(=O)[C@@H](NC(=O)[C@@](C)(O)C(=O)NCC(F)(F)C(F)(F)F)[C@@H](C)Oc2ccc(F)cc21)C(=O)O` [Compound 13c, (S)-2-acetamido-5-(2-((2-((2R,3S)-7-fluoro-3-((S)-2-hydroxy-2-methyl-3-oxo-3-(2,2,3,3,3-pentafluoropropylamino)propanamido)-2-methyl-4-oxo-3,4-dihydrobenzo[b][1,4]oxazepin-5(2H)-yl)ethoxy)carbonyloxy)ethylamino)-5-oxopentanoic acid], the “Kidney concentration of 13c” value in data set [1] (13c 1.5 mg/kg i.v., 4 h) was “BQL”; in data set [1] (13c 1.5 mg/kg i.v., 7 h), “BQL”. Moreover, the “Liver concentration of 13c” value is “BQL” in data set [1] (13c 1.5 mg/kg i.v., 4 h) and “BQL” in data set [1] (13c 1.5 mg/kg i.v., 7 h). For the same molecule, the “Plasma concentration of 13c” value in data set [1] (13c 1.5 mg/kg i.v., 4 h) is “BQL”; in data set [1] (13c 1.5 mg/kg i.v., 7 h), “BQL”. The “conversion to amine-O-SecrI (11b), in words” value in data set [1] (13c i.v., compared with 13a) is on record as “lower extent”. Moreover, in data set [1] (i.v.), the “conversion to the linker-free γ-secretase inhibitor 8, in words” value is listed as “significantly converted”. Also, the concentration at 0.25 h was determined as 20.5 ng/g in data set [1] (kidney, 13c 1.5 mg/kg i.v., 0.25 h, read-out: Kidney concentration of 13c); 196 ng/g in data set [1] (liver, 13c 1.5 mg/kg i.v., 0.25 h, read-out: Liver concentration of 13c); 53 ng/mL in data set [1] (plasma, 13c 1.5 mg/kg i.v., 0.25 h, read-out: Plasma concentration of 13c). The concentration at 0.5 h in data set [1] (kidney, 13c 1.5 mg/kg i.v., 0.5 h, read-out: Kidney concentration of 13c) stood at 3.8 ng/g; in data set [1] (liver, 13c 1.5 mg/kg i.v., 0.5 h, read-out: Liver concentration of 13c), 32.3 ng/g; in data set [1] (plasma, 13c 1.5 mg/kg i.v., 0.5 h, read-out: Plasma concentration of 13c), 4.6 ng/mL. In data set [2], this molecule yielded an IC50 of 170 nM.

On to `C[C@H]1Oc2ccc(F)cc2N(CCOC(=O)NCCNC(=O)[C@@H](N)CCC(=O)O)C(=O)[C@H]1NC(=O)[C@@](C)(O)C(=O)NCC(F)(F)C(F)(F)F` [Compound 15b, (S)-4-amino-5-(2-((2-((2R,3S)-7-fluoro-3-((S)-2-hydroxy-2-methyl-3-oxo-3-(2,2,3,3,3-pentafluoropropylamino)propanamido)-2-methyl-4-oxo-3,4-dihydrobenzo[b][1,4]oxazepin-5(2H)-yl)ethoxy)carbonylamino)ethylamino)-5-oxopentanoic acid hydrochloride], for which, in data set [3], the “conversion to amine-SecrI (11a), in words” value is reported as “overall highest conversion”. Further, the “Kidney concentration of administered compound” value in data set [3] (4 h) and in data set [3] (7 h) was “BQL” throughout. In addition, the “Plasma concentration of administered compound” value in data set [3] (4 h) and in data set [3] (7 h) was “BQL” throughout. Further, the concentration at 0.5 h stood at 8.51 ng/g in data set [3] (male, mouse, kidney, ip, read-out: Kidney concentration of administered compound); 277 ng/g in data set [3] (male, mouse, liver, ip, read-out: Liver concentration of administered compound); 3.67 ng/mL in data set [3] (male, mouse, plasma, ip, read-out: Plasma concentration of administered compound). The concentration at 4 h in data set [3] (male, mouse, liver, ip, 4 h, read-out: Liver concentration of administered compound) worked out at 60.7 ng/g. In data set [3] (male, mouse, liver, ip, 7 h, read-out: Liver concentration of administered compound), the concentration at 7 h is 5.78 ng/g. Besides, in data set [2], the “IC50 for blockade of the Notch pathway, range in words” value was “high nM range”. In addition, inhibition in data set [2] was half-maximal at 258 nM (IC50).
